Test results: patent US11076595B2, “1-(n,n-disubstituted carbamoyl) 4-(substituted sulfonyl)triazolin-5-one derivative, 4-(n,n-disubstituted carbamoyl) 1-(substituted sulfonyl)triazolin-5-one derivative, and herbicide containing said derivative as active ingredient” (HOKKO CHEMICAL INDUSTRY CO., LTD., priority 2017, dated 2021)

Tests used:
Format in all cases: in vivo
Lindernia pyxidaria [1] = test: Test Example 11: herbicidal effect test by soil treatment in paddy field; conditions: 120 g/10a active ingredient, 14 days after treatment
In short: (§1)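 Seeds were sown 0-1 cm deep in puddled, fertilised paddy soil in Wagner pots and kept under about 3 cm of flooding in a greenhouse. Diluted emulsifiable concentrate was added dropwise right after sowing at 120 g a.i. per 10 are. Suppression (%) came from dry weight versus untreated pots after 14 days, two replicates.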

Scirpus juncoides [2] = test: as above; conditions: 120 g/10a active ingredient, 14 days after treatment
In short: as §1

Echinochloa crus-galli [3] = test: as above; conditions: 120 g/10a active ingredient, 14 days after treatment
In short: as §1

Monochoria vaginalis [4] = test: as above; conditions: 120 g/10a active ingredient, 14 days after treatment
In short: as §1

Lindernia pyxidaria [5] = test: Test Example 12: herbicidal effect test by treatment during growing period in paddy field; conditions: 120 g/10a; treatment seven days after sowing in flooded paddy pot; assessed 14 days after treatment
Description: (§2) This test was performed with two replications per one formulation concentration plot, and 14 days after the formulation treatments, the weed suppression rate (%) was determined according to the following equation (Math. 2). Weed suppression rate (%)=(1−average dry weight (g) of plants in treated plots/average dry weight (g) of plants in untreated plots)×100 [Math. 2]
(§3) A Wagner pot having an area of 1/10000 are was filled with paddy field soil and after adding water, a chemical fertilizer (N:P:K=17:17:17) was mixed, followed by puddling. Thereafter, 30 grains of each of Echinochloa crus-galli, broad-leaved weed (Lindernia pyxidaria, Monochoria vaginalis) and Scirpus juncoides seeds were sown to a depth of 0 to 1 cm. Immediately after the sowing, the pot was flooded, and the depth of water was kept at about 3 cm. The pot was subsequently managed in a glass greenhouse. Seven Days after sowing, an emulsifiable concentrate prepared according to Formulation Example 15 by using the compound shown in Table 10 below was diluted with water, and a predetermined amount of the water-diluted formulation was added dropwise. The application rate of the active ingredient, by conversion, corresponded to 120 g per 10 are. The test was performed with two replications per one formulation concentration plot, and 14 days after the formulation treatments, the weed suppression rate (%) was determined according to the equation (Math. 2).

Scirpus juncoides [6] = test: as above; conditions: 120 g/10a; treatment seven days after sowing in flooded paddy pot; assessed 14 days after treatment
Description: as §2, §3

Echinochloa crus-galli [7] = test: as above; conditions: 120 g/10a; treatment seven days after sowing in flooded paddy pot; assessed 14 days after treatment
Description: as §2, §3

Monochoria vaginalis [8] = test: as above; conditions: 120 g/10a; treatment seven days after sowing in flooded paddy pot; assessed 14 days after treatment
Description: as §2, §3

Row | Structure (SMILES) | Weed suppression rate (%) Lindemia pyxidaria (Lindernia pyxidaria [1]) [%] | Weed suppression rate (%) Scirpus juncoides (Scirpus juncoides [2]) [%] | Weed suppression rate (%) Echinochloa crus-galli (Echinochloa crus-galli [3]) [%] | Weed suppression rate (%) Monochoria vaginalis (Monochoria vaginalis [4]) [%] | Weed suppression rate (%) Lindemia pyxidaria (Lindernia pyxidaria [5]) [%] | Weed suppression rate (%) Scirpus juncoides (Scirpus juncoides [6]) [%] | Weed suppression rate (%) Echinochloa crus-galli (Echinochloa crus-galli [7]) [%] | Weed suppression rate (%) Monochoria vaginalis (Monochoria vaginalis [8]) [%]
1 | CC(C)N(C(=O)n1cnn(S(=O)(=O)c2ccccc2Cl)c1=O)c1ccc(Cl)cn1 [Compound 11-536] | 90 | 60 | 90 | 60 | 80 | 90 | 90 | 60
2 | CC(C)N(C(=O)n1cnn(S(=O)(=O)c2cccc(Cl)c2)c1=O)c1ccc(F)c(F)c1F [Compound 11-553] | 90 | 30 | 100 | 70 | 70 | 30 | 100 | 60
3 | CC(C)N(C(=O)n1cnn(S(=O)(=O)c2cccc(Cl)c2)c1=O)c1c(F)cc(F)cc1F [Compound 11-554] | 90 | 70 | 100 | 70 | 80 | 90 | 80 | 80
4 | Cc1cc(F)ccc1N(C(=O)n1cnn(S(=O)(=O)c2cccc(Cl)c2)c1=O)C(C)C [Compound 11-563] | 100 | 100 | 100 | 90 | 80 | 100 | 100 | 80
5 | CC(C)N(C(=O)n1cnn(S(=O)(=O)c2ccc(Cl)cc2)c1=O)c1cccc(F)c1F [Compound 11-587] | 80 | 60 | 90 | 60 | 80 | 90 | 90 | 90
6 | CC(C)N(C(=O)n1cnn(S(=O)(=O)c2ccc(Cl)cc2)c1=O)c1ccc(F)c(F)c1F [Compound 11-591] | 90 | 60 | 100 | 70 | 70 | 100 | 60 | 70
7 | CC(C)N(C(=O)n1cnn(S(=O)(=O)c2ccc(Cl)cc2)c1=O)c1c(F)cc(F)cc1F [Compound 11-592] | 100 | 80 | 100 | 90 | 80 | 80 | 100 | 100
8 | Cc1cc(F)ccc1N(C(=O)n1cnn(S(=O)(=O)c2ccc(Cl)cc2)c1=O)C(C)C [Compound 11-601] | 80 | 60 | 70 | 80 | 70 | 60 | 60 | 70
9 | CC(C)N(C(=O)n1cnn(S(=O)(=O)c2ccc(Cl)cc2)c1=O)c1ccc(Cl)cn1 [Compound 11-612] | 100 | 70 | 100 | 70 | 90 | 90 | 80 | 70
